Here are results for 34 compounds from patent publication US6855710B2, “Substituted indolines with an inhibitory effect on various kinases and complexes of CDKs” (Boehringer Ingelheim Pharma KG, priority 1998, dated 2005).

A word on the melting point: it is the temperature of the solid-liquid transition.

Molecules are shown by their SMILES.

Regarding `CN(C)CC(=O)N(C)c1ccc(N/C(=C2\C(=O)Nc3ccccc32)c2ccccc2)cc1.Cl`, the melting point lay within 290 to 292 °C.
The result for `CCOC(=O)CN(C)C(=O)c1ccc(N/C(=C2\C(=O)Nc3ccccc32)c2ccccc2)cc1` [Example 394, (Z)-3-{1-[4-(N-ethoxycarbonylmethyl-N-methyl-aminocarbonyl)-phenylamino]-1-phenyl-methylidene}-2-indolinone] reads 95 to 98 °C.
Under `CN(C)CCN(C)S(=O)(=O)c1ccc(N/C(=C2\C(=O)Nc3ccc([N+](=O)[O-])cc32)c2ccccc2)cc1` [Example 402, (Z)-3-{1-[4-(N-(2-dimethylaminoethyl)-N-methyl-aminosulphonyl)-phenylamino]-1-phenyl-methylidene}-5-nitro-2-indolinone] stands 215 to 218 °C.
`O=C1Nc2ccccc2/C1=C(/Nc1ccccc1C(=O)O)c1ccccc1` [Example 8, (Z)-3-[1-(2-carboxy-phenylamino)-1-phenyl-methylidene]-2-indolinone] displayed a melting point of 227 to 230 °C.
Under `O=C1Nc2ccc([N+](=O)[O-])cc2/C1=C(/Nc1ccc(CN2CCC(C(=O)O)CC2)cc1)c1ccccc1` [Example 177, (Z)-3-{1-[4-(4-carboxypiperidinomethyl)-phenylamino]-1-phenyl-methylidene}-5-nitro-2-indolinone] stands 207 °C.
The result for `COC(=O)C(Cc1ccc(N/C(=C2\C(=O)Nc3ccc([N+](=O)[O-])cc32)c2ccccc2)cc1)NC(=O)OC(C)(C)C` (stereo not shown) [Example 225, (Z)-3-{1-[4-(2-tert.butoxycarbonylamino-2-methoxycarbonyl-ethyl)-phenylamino]-1-phenyl-methylidene}-5-nitro-2-indolinone] reads 139 °C; that for `CN(C)CCNC(=O)c1ccc(N/C(=C2\C(=O)Nc3ccccc32)c2ccccc2)cc1` [Example 390, (Z)-3-{1-[4-(2-dimethylamino-ethylaminocarbonyl)-phenylamino]-1-phenyl-methylidene}-2-indolinone], 145 to 147 °C.
Under `CC(C)CNCc1ccc(N/C(=C2\C(=O)Nc3ccc([N+](=O)[O-])cc32)c2ccccc2)cc1` [Example 164, (Z)-3-[1-(4-isobutylaminomethyl-phenylamino)-1-phenyl-methylidene]-5-nitro-2-indolinone] stands 208 °C; under `CC(C)(C)OC(=O)NCc1ccc(N/C(=C2\C(=O)Nc3ccc([N+](=O)[O-])cc32)c2ccccc2)cc1` [Example 113, (Z)-3-[1-(4-tert.butoxycarbonylaminomethyl-phenylamino)-1-phenyl-methylidene]-5-nitro-2-indolinone], 234 to 236 °C (dec.); under `O=C1Nc2ccc([N+](=O)[O-])cc2/C1=C(/Nc1ccc(CN2CCSCC2)cc1)c1ccccc1` [Example 229, (Z)-3-[1-(4-thiomorpholinomethyl-phenylamino)-1-phenyl-methylidene]-5-nitro-2-indolinone], 276 to 277 °C.
`C[C@H](N)c1ccc(N/C(=C2\C(=O)Nc3ccc([N+](=O)[O-])cc32)c2ccccc2)cc1.Cl` gave a melting point of 230 to 235 °C.
Under `CN(C)C(=O)CN(c1ccc(N/C(=C2\C(=O)Nc3ccc([N+](=O)[O-])cc32)c2ccccc2)cc1)S(C)(=O)=O` [Example 201, (Z)-3-{1-[4-(N-dimethylaminocarbonylmethyl-N-methylsulphonyl-amino)-phenylamino]-1-phenyl-methylidene}-5-nitro-2-indolinone] stands 277 to 280 °C; under `CS(=O)(=O)N(CC(=O)O)c1ccc(N/C(=C2\C(=O)Nc3ccc([N+](=O)[O-])cc32)c2ccccc2)cc1` [Example 199, (Z)-3-{1-[4-(N-carboxymethyl-N-methylsulphonyl-amino)-phenyl-amino]-1-phenyl-methylidene}-5-nitro-2-indolinone], 180 to 183 °C; under `CN(C)CCN(c1cccc(N/C(=C2\C(=O)Nc3ccccc32)c2ccccc2)c1)S(C)(=O)=O` [Example 324, (Z)-3-{1-[3-(N-(2-dimethylaminoethyl)-N-methylsulphonyl-amino)-phenylamino]-1-phenyl-methylidene}-2-indolinone], 208 to 211 °C.
The result for `CCCC(=O)N(CCN(C)C)c1ccc(N/C(=C2\C(=O)Nc3ccc([N+](=O)[O-])cc32)c2ccccc2)cc1` [Example 331, (Z)-3-{1-[4-(N-(2-dimethylaminoethyl)-N-propylcarbonyl-amino)-phenylamino]-1-phenyl-methylidene}-5-nitro-2-indolinone] reads 275 to 277 °C; that for `CCN(CC)Cc1ccc(N/C(=C2\C(=O)Nc3ccc([N+](=O)[O-])cc32)c2ccccc2)cc1` [Example 159, (Z)-3-[1-(4-diethylaminomethyl-phenylamino)-1-phenyl-methylidene]-5-nitro-2-indolinone], 173 to 174 °C.
The result for `O=C1Nc2ccc([N+](=O)[O-])cc2/C1=C(/Nc1ccc(CNc2ccccn2)cc1)c1ccccc1` [Example 279, (Z)-3-{1-[4-(pyridine-2-ylaminomethyl)-phenylamino]-1-phenyl-methylidene}-5-nitro-2-indolinone] reads 266 to 268 °C; that for `CCN(CC)CC(=O)Nc1ccc(N/C(=C2\C(=O)Nc3ccccc32)c2ccccc2)cc1.Cl`, 267 to 269 °C; that for `CC(=O)NCC(=O)N(C)c1ccc(N/C(=C2\C(=O)Nc3ccc([N+](=O)[O-])cc32)c2ccccc2)cc1` [Example 140, (Z)-3-{1-[4-(N-acetylaminomethylcarbonyl-N-methyl-amino)phenylamino]-1-phenyl-methylidene}-5-nitro-2-indolinone], 277 to 278 °C.
In turn, `COc1cccc(N/C(=C2\C(=O)Nc3ccccc32)c2ccccc2)c1` [Example 3, (Z)-3-[1-(3-methoxy-phenylamino)-1-phenyl-methylidene]-2-indolinone] displayed a melting point of 218 to 221 °C.
Under `CS(=O)(=O)Nc1cccc(N/C(=C2\C(=O)Nc3ccccc32)c2ccccc2)c1` [Example 183, (Z)-3-[1-(3-methylsulphonylamino-phenylamino)-1-phenyl-methylidene]-2-indolinone] stands 275 °C; under `CCC(=O)N(CCN(C)C)c1ccc(N/C(=C2\C(=O)Nc3ccccc32)c2ccccc2)cc1` [Example 341, (Z)-3-{1-[4-(N-(2-dimethylaminoethyl)-N-propionyl-amino)-phenylamino]-1-phenyl-methylidene}-2-indolinone], 272 to 274 °C; under `NC(=O)c1ccc(N/C(=C2\C(=O)Nc3ccccc32)c2ccccc2)cc1` [Example 20, (Z)-3-[1-(4-aminocarbonyl-phenylamino)-1-phenyl-methylidene]-2-indolinone], 321 to 323 °C.
The result for `CN(C)CCCc1ccc(N/C(=C2\C(=O)Nc3ccc([N+](=O)[O-])cc32)c2ccccc2)cc1` [Example 283, (Z)-3-{1-[4-(3-dimethylamino-propyl)-phenylamino]-1-phenyl-methylidene}-5-nitro-2-indolinone] reads 269 °C (dec.); that for `CN(C)C(=O)CN(c1ccc(N/C(=C2\C(=O)Nc3ccccc32)c2ccccc2)cc1)S(=O)(=O)c1ccccc1` [Example 205, (Z)-3-{1-[4-(N-dimethylaminocarbonylmethyl-N-phenylsulphonyl-amino)-phenylamino]-1-phenyl-methylidene}-2-indolinone], 255 to 258 °C; that for `CS(=O)(=O)N(CC#N)c1ccc(N/C(=C2\C(=O)Nc3ccccc32)c2ccccc2)cc1` [Example 187, (Z)-3-{1-[4-(N-cyanomethyl-N-methylsulphonyl-amino)-phenyl-amino]-1-phenyl-methylidene}-2-indolinone], 266 to 268 °C.
In turn, `O=C1Nc2ccc([N+](=O)[O-])cc2/C1=C(/Nc1ccc(CN2CCCCCC2)cc1)c1ccccc1` [Example 119, (Z)-3-[1-(4-hexamethyleneiminomethyl-phenylamino)-1-phenyl-methylidene]-5-nitro-2-indolinone] showed a melting point of 220 °C.
In turn, `CNC(=O)CN(c1cccc(N/C(=C2\C(=O)Nc3ccccc32)c2ccc(CNC(C)=O)cc2)c1)S(C)(=O)=O` [Example 419, (Z)-3-{1-[3-(N-methylaminocarbonylmethyl-N-methylsulphonyl-amino)-phenylamino]-1-(4-acetylaminomethyl-phenyl)-methylidene}-2-indolinone] returned a melting point of 242 °C.
For the compound `CC(C)(C)OC(=O)NCc1cccc(N/C(=C2\C(=O)Nc3ccccc32)c2ccccc2)c1` [Example 67, (Z)-3-[1-(3-tert.butoxycarbonylaminomethyl-phenylamino)-1-phenyl-methylidene]-2-indolinone], the melting point was 190 to 195 °C.
The result for `CCOC(=O)c1cccc(N/C(=C2\C(=O)Nc3ccccc32)c2ccccc2)c1` [Example 14, (Z)-3-[1-(3-ethoxycarbonyl-phenylamino)-1-phenyl-methylidene]-2-indolinone] reads 194 to 195 °C.
The result for `CC(=O)N(CC(=O)O)c1ccc(N/C(=C2\C(=O)Nc3ccccc32)c2ccccc2)cc1` [Example 353, (Z)-3-{1-[4-(N-carboxymethyl-N-acetyl-amino)-phenylamino]-1-phenyl-methylidene}-2-indolinone] reads 276 °C (dec.).
The result for `CCOC(=O)CNS(=O)(=O)c1ccc(N/C(=C2\C(=O)Nc3ccccc32)c2ccccc2)cc1` [Example 406, (Z)-3-{1-[4-(ethoxycarbonylmethylaminosulphonyl)-phenylamino]-1-phenyl-methylidene}-2-indolinone] reads 196 to 199 °C; that for `O=C(O)CCNCc1ccc(N/C(=C2\C(=O)Nc3ccc([N+](=O)[O-])cc32)c2ccccc2)cc1` [Example 242, (Z)-3-{1-[4-(2-carboxy-ethylaminomethyl)-phenylamino]-1-phenyl-methylidene}-5-nitro-2-indolinone], 220 to 222 °C.
With `Cc1cccc(/C(Nc2ccc(CN(C)C)cc2)=C2/C(=O)Nc3ccccc32)c1` [Example 213, (Z)-3-[1-(4-dimethylaminomethyl-phenylamino)-1-(m-tolyl)-methylidene]-2-indolinone], the melting point fell in the range of 224 to 226 °C.
